Measured values reported in ChEMBL document CHEMBL5291721, “A preclinical secondary pharmacology resource illuminates target-adverse drug reaction associations of marketed drugs” (Nat Commun, 2023).

How the values were obtained:
[1] = biological target: Type-2 angiotensin II receptor (Homo sapiens, UniProt P50052); assay type: functional
[2] = biological target: T1, Retinoic acid receptor gamma (Homo sapiens, UniProt P13631); assay type: functional, cell-based
T1 sequence (P13631 whole entry): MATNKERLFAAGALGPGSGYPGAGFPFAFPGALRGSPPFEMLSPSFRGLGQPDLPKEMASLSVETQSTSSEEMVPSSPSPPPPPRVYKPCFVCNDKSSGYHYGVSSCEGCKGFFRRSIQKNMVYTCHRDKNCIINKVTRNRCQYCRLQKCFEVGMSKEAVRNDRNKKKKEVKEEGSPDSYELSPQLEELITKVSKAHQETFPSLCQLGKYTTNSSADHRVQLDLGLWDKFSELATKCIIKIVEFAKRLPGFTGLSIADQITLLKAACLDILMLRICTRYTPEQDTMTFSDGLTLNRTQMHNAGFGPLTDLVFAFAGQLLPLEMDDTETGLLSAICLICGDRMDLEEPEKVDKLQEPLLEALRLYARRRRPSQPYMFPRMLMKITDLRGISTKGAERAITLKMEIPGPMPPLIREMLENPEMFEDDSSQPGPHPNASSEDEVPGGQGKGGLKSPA

[3] = biological target: T1, Retinoic acid receptor gamma; assay type: functional, cell-based; remark: listed apart in the source
Bile acid receptor [4] = biological target: T2, Bile acid receptor (Homo sapiens, UniProt Q96RI1); assay type: functional
T2 sequence (Q96RI1 whole entry): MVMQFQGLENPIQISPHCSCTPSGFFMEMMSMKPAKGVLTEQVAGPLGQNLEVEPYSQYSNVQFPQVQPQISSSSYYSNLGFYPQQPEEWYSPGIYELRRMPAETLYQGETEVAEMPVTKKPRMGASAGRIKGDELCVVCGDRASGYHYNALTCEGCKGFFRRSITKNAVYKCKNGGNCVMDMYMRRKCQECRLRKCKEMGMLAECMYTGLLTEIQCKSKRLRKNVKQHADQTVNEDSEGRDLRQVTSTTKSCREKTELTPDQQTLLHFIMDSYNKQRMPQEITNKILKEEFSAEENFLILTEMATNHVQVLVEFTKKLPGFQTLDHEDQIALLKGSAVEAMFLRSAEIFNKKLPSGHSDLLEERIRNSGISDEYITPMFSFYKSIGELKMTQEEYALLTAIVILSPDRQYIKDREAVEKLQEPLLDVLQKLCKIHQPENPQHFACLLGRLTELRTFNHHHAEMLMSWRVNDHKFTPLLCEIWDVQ

[5] = biological target: T3, Retinoic acid receptor alpha (Homo sapiens, UniProt P10276); assay type: functional, cell-based
T3 sequence (P10276 whole entry): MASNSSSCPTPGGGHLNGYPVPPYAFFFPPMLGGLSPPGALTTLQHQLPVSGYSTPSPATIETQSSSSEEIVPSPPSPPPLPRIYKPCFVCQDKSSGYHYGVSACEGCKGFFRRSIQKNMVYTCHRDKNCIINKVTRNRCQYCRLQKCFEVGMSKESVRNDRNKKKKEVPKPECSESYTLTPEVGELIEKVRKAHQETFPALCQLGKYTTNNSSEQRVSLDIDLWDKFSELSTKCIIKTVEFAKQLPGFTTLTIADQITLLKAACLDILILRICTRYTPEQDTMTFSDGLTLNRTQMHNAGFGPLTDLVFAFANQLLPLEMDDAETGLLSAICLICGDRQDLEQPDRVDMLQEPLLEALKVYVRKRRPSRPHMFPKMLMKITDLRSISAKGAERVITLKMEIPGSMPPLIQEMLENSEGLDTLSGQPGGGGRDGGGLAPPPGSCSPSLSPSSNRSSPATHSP

[6] = biological target: T4, Oxysterols receptor LXR-alpha (Homo sapiens, UniProt Q13133); assay type: functional
T4 sequence (Q13133 whole entry): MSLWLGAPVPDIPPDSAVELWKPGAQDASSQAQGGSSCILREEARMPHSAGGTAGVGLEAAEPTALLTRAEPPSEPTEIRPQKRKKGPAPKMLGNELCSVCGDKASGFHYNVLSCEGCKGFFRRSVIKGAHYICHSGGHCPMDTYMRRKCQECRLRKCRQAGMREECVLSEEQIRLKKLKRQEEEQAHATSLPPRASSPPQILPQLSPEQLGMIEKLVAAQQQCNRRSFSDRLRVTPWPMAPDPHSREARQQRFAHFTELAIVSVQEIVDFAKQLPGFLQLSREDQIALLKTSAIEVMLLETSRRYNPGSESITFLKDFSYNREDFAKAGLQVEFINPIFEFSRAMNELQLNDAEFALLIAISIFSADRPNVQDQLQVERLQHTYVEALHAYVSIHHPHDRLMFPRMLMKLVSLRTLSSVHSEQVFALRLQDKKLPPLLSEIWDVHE

Bile acid receptor [7] = biological target: T2, Bile acid receptor; assay type: functional; remark: listed apart in the source
[8] = biological target: T4, Oxysterols receptor LXR-alpha; assay type: functional; remark: listed apart in the source
[9] = biological target: T5, Oxysterols receptor LXR-beta (Homo sapiens, UniProt P55055); assay type: functional
T5 sequence (P55055 whole entry): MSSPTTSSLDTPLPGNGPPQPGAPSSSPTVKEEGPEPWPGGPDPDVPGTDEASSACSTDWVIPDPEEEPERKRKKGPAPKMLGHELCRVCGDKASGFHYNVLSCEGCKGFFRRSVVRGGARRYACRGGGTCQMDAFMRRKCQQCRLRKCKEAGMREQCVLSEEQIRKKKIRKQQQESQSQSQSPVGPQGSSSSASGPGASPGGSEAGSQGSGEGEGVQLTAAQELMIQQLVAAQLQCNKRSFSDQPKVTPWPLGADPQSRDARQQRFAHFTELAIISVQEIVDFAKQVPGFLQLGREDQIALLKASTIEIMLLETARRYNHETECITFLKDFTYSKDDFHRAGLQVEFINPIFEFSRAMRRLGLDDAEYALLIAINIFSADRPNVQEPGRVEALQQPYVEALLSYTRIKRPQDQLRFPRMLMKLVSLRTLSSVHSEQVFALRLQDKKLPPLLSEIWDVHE

[10] = biological target: T3, Retinoic acid receptor alpha; assay type: functional, cell-based; remark: listed apart in the source
[11] = biological target: T5, Oxysterols receptor LXR-beta; assay type: functional; remark: listed apart in the source
Bile acid receptor [12] = biological target: T2, Bile acid receptor; assay type: functional; remark: listed apart in the source
Bile acid receptor [13] = biological target: T2, Bile acid receptor; assay type: functional; remark: listed apart in the source
Also: assay procedure not described here.

Chain of Type-2 angiotensin II receptor (P50052 whole entry): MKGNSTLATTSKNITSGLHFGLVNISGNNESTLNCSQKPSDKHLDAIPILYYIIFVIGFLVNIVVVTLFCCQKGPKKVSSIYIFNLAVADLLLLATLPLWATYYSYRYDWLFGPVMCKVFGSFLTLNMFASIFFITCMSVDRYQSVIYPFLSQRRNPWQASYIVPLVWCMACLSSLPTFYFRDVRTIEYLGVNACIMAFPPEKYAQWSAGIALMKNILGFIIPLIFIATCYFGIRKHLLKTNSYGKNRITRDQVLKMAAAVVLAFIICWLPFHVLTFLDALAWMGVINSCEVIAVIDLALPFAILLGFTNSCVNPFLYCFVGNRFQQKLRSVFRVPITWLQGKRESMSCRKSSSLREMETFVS

Row | AC50 [1] [µM] | AC50 [2] [µM] | AC50 [3] [µM] | AC50 (Bile acid receptor [4]) [µM] | AC50 [5] [µM] | AC50 [6] [µM] | AC50 (Bile acid receptor [7]) [µM] | AC50 [8] [µM] | AC50 [9] [µM] | AC50 [10] [µM] | AC50 [11] [µM] | AC50 (Bile acid receptor [12]) [µM] | AC50 (Bile acid receptor [13]) [µM] | SMILES
1 | > 100 |  |  |  |  |  |  |  |  |  |  |  |  | CC(C)NCC(O)COc1ccc(COCCOC(C)C)cc1 (stereo not drawn) [BISOPROLOL]
2 |  | 2.6 | > 30 | > 30 | > 30 | > 30 | > 10 | 6.3 | 2.7 | 22 | > 30 | > 10 | > 30 | COc1ccc2c(c1)C(=O)N(CCc1ccc(S(=O)(=O)NC(=O)NC3CCCCC3)cc1)C(=O)C2(C)C [GLIQUIDONE]
